Test results taken from US20190093079A1, “METHODS FOR CONTROLLED PROLIFERATION OF STEM CELLS / GENERATING INNER EAR HAIR CELLS USING GSK-3-ALPHA INHIBITORS” (Frequency Therapeutics, Inc., priority 2016, published 2019).
Entries after “also recorded” stand apart in the source; their conditions may differ.

Legend:
[1] = test system: noise-damaged inner ear; test: Hearing recovery (ABR threshold) in noise damaged CBA/CaJ mice; format: in vivo; conditions: trans-tympanic Poloxamer gel 24 h after noise exposure, ABR at 30 days, 5-40 kHz; FIG. 4
Protocol: For the mouse studies, a 17-19% (w/w) stock solution of poloxamer 407 gel (Sigma-Aldrich) was prepared by slowly adding it to cold 1× phosphate-buffered saline at pH 7.4. This solution is liquid when refrigerated or at room temperature but solidifies at body temperature. The gel was tinted blue with Evans blue dye (50 ppm) for visualization during administration.
A formulation was then prepared with 87.6 mg/ml VPA and 55.6 mg/ml CHIR99021 or 87.6 mg/ml VPA and 50 mg/ml GSK3 inhibitor XXII in 17-19% Poloxamer 407 with 5% DMSO.
CBA/CaJ mice were deafened in a noise chamber by exposure to an 8-16 kHz octave band noise band for 2 hours at 120 dB SPL. 24 hours after noise exposure, their hearing was assessed by measuring auditory brainstem responses (ABRs). The minimum sound pressure level (SPL) required for visual detection of ABR Wave I was determined at 5, 10, 20, 28.3, and 40 kHz. Following ABR measurements, a trans-tympanic injection of a Poloxamer gel drug mixture was delivered to fill the middle ear cavity. After 30 days, ABR was assessed and the improvement in hearing threshold from 24 hrs to 30 days after noise exposure was determined.

[2] = biological target: T1, GSK3-alpha (Homo sapiens, UniProt P49840); conditions: cited from earlier work; for IC50: potency = IC50, literature values
[3] = test system: Lgr5-GFP inner ear progenitor cells; test: Expansion of Lgr5-GFP inner ear progenitor cells in Matrigel 3D culture; format: cell-based, mouse; conditions: 10 days culture, background of EGF, bFGF, IGF-1 and VPA; FIGS. 1A and 2A
Protocol: Isolation of stem cells from the inner ear: All animal studies were conducted under an approved institutional protocol according to National Institutes of Health guidelines. For experiments with neonatal mice (postnatal days 1-3), the cochleae were dissected in HBSS and the organ of Corti was separated from the stria vascularis and the modiolus. The organs of Corti were then treated with Cell Recovery Solution (Corning) for 1 h to separate cochlear epithelium from the underlying mesenchyme. Epithelia were then collected and treated with TrypLE (Life Technologies) for 15-20 minutes at 37° C. Single cells obtained by mechanical trituration were filtered (40 μm) and suspended in Matrigel (Corning) for 3D culture.
Cells were cultured in a 1:1 mixture of DMEM and F12, supplemented with Glutamax (GIBCO), N2, B27 (Invitrogen), EGF (50 ng/mL; Chemicon), bFGF (50 ng/mL; Chemicon), IGF1 (50 ng/mL; Chemicon) and a GSK3-alpha inhibitor. […]
Lgr5-positive cells were quantified after 10 days (D10) in culture in multiple conditions. […] The cells were then stained with propidium iodide (PI) and analyzed using a flow cytometer for Lgr5-GFP expression. The number of GFP-positive cells and the percentage of GFP-positive cells were quantified. […]
Lgr5 cell quantification: Cell culture media was removed and Tryple was added. […] Live Lgr5-GFP cell number was counted using PI staining and the Lgr5-GFP.

[4] = test system: organ of Corti isolated from Lgr5-GFP mice; test: Cochlear explant: organ of Corti treated ex vivo; format: cell-based, mouse
Protocol: For cochlear explant studies, organ of Corti isolated from Lgr5-GFP mice were treated with either CHIR99021+VPA or GSK3-inhibitor XXII+VPA for 3 days. Organ of Corti were plated on a cover slip and bathed in media containing the drugs. Growth factors were not present. CHIR99021 (3 uM), GSK3-inhibitor XXII (0.3 uM), VPA (1 mM).

[5] = biological target: T1, GSK3-alpha; test: GSK3-alpha potency (IC50), kinase assay; format: biochemical; conditions: GSK3-alpha/GSK3-beta selectivity ratio = IC50 GSK3-beta divided by IC50 GSK3-alpha
[6] = biological target: GSK3-beta (Homo sapiens, UniProt P49841); conditions: potency = IC50; literature values; cited from earlier work
GSK3-beta, sequence (P49841 whole entry, species assumed): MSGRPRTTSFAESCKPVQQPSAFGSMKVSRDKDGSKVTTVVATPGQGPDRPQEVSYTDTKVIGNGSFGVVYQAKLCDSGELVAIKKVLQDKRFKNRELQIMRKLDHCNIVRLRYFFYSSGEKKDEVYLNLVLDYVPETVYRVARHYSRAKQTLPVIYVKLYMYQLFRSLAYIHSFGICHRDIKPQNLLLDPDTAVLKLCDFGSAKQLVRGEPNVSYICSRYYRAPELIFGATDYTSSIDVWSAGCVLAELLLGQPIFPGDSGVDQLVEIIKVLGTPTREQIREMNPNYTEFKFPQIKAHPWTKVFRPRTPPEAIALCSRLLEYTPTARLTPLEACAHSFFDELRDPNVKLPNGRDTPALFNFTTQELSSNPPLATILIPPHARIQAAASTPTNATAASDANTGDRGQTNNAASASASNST

T1 sequence (P49840 whole entry, species assumed): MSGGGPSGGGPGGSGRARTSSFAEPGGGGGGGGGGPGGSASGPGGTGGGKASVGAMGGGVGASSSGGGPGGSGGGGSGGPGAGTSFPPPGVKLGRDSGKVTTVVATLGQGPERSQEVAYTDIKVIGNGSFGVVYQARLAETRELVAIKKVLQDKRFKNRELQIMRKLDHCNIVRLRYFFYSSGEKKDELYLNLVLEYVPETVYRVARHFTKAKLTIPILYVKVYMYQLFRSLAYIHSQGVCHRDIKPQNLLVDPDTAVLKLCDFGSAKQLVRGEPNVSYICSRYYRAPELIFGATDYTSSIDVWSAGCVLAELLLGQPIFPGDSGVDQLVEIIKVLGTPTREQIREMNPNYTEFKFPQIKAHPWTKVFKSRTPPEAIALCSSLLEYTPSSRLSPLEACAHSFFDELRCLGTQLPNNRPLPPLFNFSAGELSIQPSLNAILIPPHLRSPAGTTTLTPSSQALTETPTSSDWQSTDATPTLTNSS

Cc1ccc(C(=O)Nc2c[nH]nc2C(=O)NCCCOC(C)C)cn1 [GSK-3b XXII]
hearing recovery [1]: evidence of hearing recovery
GSK3α versus GSK3β inhibition preference [2]: equally inhibits GSK3α and GSK3β
IC50 [2]: 2.3 nM
Expansion of Lgr5-GFP cells / Lgr5-GFP+ colonies [3]: large colonies of Lgr5-GFP+ cells were observed
Lgr5-GFP expression in organ of Corti ([4]; 3 days, 0.3 uM with VPA 1 mM, FIG. 3): increased Lgr5-GFP expression
rows of inner hair cells ([4]; 3 days, normal 1 row, FIG. 3): 2 rows
rows of outer hair cells ([4]; 3 days, normal 3 rows, FIG. 3): 6 rows
hair cell number in organ of Corti ([4]; in combination with VPA, FIG. 3, listed as GSK3 inhibitor XXII): increase in hair cell number; also recorded: increased number of hair cells

COc1ccccc1[C@@H]1C2=C(CC(C)(C)CC2=O)Nc2n[nH]c(C(F)(F)F)c21 [BRD1172]
Ratio of Alpha to Beta [5]: 3.3
IC50 [6]: 10 nM
IC50 [2]: 3 nM

N#Cc1ccc2[nH]c(O)c(-c3ccc(CN4CCOCC4)cn3)c2c1 [AZD1080]
GSK3α versus GSK3β inhibition preference [2]: preferentially inhibits GSK3α
Expansion of Lgr5-GFP cells / Lgr5-GFP+ colonies [3]: large colonies of Lgr5-GFP+ cells were observed

O=C1NC(=O)[C@@H](c2cn3c4c(cccc24)CCC3)[C@@H]1c1c[nH]c2ccccc12 [Tivantinib]
IC50 [6]: 1870 nM
IC50 [2]: 659 nM

Cc1c[nH]c(-c2cnc(NCCNc3ccc(C#N)cn3)nc2-c2ccc(Cl)cc2Cl)n1 [CHIR99021]
GSK3α versus GSK3β inhibition preference [2]: preferentially inhibits GSK3β
